Test results as given in ChEMBL document CHEMBL6071176, “Development of Phloroglucinol-Linked Tris-Quaternary Ammonium Salt Antimicrobial Peptide Mimics with Low Cytotoxicity and Broad-Spectrum Antibacterial Activity” (J Med Chem, 2024).
Converted amounts (≈) assume the structure as drawn. The source made the active and inactive calls. The calls are words filed in the database; no cut-off is given here. *1 amine or outer side, *2 acyl side, *3 side chain or, on linkers, in order; H or OH if unused. Where a SMILES comes first, the peptide text is derived from it. Bridges are numbered along the chain shown (N, C = ends). Side-chain parts run from the residue outwards. [ ]: non-standard residue; d: D form. The star is where a group is joined. X1 = C[C@@H](O)[C@H](CN([C@@H](CCN)C(=O)[*:2])[*:1])N[*:3]; Octanoyl(6-Me) = CCC(C)CCCCC(=O)*; Dab = NCC[C@H](N)C(=O)O

Tests used:
Staphylococcus aureus [1] = experiment: Antibacterial activity against methicillin-resistant Staphylococcus aureus; assay type: functional
[2] = Selectivity index, ratio of HC50 for human erythrocytes to MIC for methicillin-resistant Staphylococcus aureus; assay type: toxicity, cell-based, RBC; settings: read-out: Selectivity Index
Staphylococcus aureus [3] = experiment: Antibacterial activity against NDM-1 gene-resistant Staphylococcus aureus assessed as inhibition of bacterial growth incubated for 18 hrs by CLSI guidelines based assay; assay type: functional
Staphylococcus aureus [4] = experiment: Resistance development in Staphylococcus aureus assessed as increase in MIC measured after 20 passages of continues culture; assay type: functional
Staphylococcus aureus [5] = experiment: Antibacterial activity against methicillin-resistant Staphylococcus aureus assessed as inhibition of bacterial growth incubated for 18 hrs by CLSI guidelines based assay; assay type: functional
[6] = test system: Stenotrophomonas maltophilia; experiment: Antimicrobial activity against Stenotrophomonas maltophilia assessed as inhibition of growth incubated for 18 hrs by CLSI guidelines based assay; assay type: functional
Escherichia coli = experiment: Antimicrobial activity against Escherichia coli assessed as inhibition of growth incubated for 18 hrs by CLSI guidelines based assay; assay type: functional
[7] = Selectivity index, ratio of HC50 for sheep red blood cells to MIC for Staphylococcus aureus; assay type: toxicity, cell-based, RBC; settings: read-out: Selectivity Index
Enterococcus faecalis = experiment: Antimicrobial activity against Enterococcus faecalis assessed as inhibition of growth incubated for 18 hrs by CLSI guidelines based assay; assay type: functional
[8] = Hemolytic activity in sheep red blood cells measured after 1 hr incubation; assay type: toxicity, cell-based, Ovis aries, Erythrocyte
[9] = Cytotoxicity against human Gastric mucosal cells measured after 24 hrs by CCK-8 assay; assay type: toxicity, cell-based, Gastric mucosal cell
Staphylococcus aureus [10] = experiment: Antimicrobial activity against Staphylococcus aureus assessed as inhibition of growth incubated for 18 hrs by CLSI guidelines based assay; assay type: functional
[11] = Selectivity index, ratio of HC50 for RBC (unknown origin) to MIC for Staphylococcus aureus; assay type: toxicity, cell-based; settings: red blood cells; read-out: Selectivity Index
[12] = Hemolytic activity in red blood cells (unknown origin); assay type: toxicity, cell-based, Erythrocyte
Staphylococcus aureus [13] = experiment: Antibacterial activity against Staphylococcus aureus; assay type: functional
[14] = Hemolytic activity in human erythrocytes; assay type: toxicity, cell-based, Erythrocyte
Staphylococcus aureus [15] = experiment: Bactericidal activity against early exponential phase Staphylococcus aureus assessed as bacterial killing at 6 ug/ml incubated for 12 hrs by time-kill assay; assay type: functional, organism-based; settings: dose 6.0 µg/ml
Staphylococcus aureus [16] = experiment: Antibacterial activity against methicillin-resistant Staphylococcus aureus assessed as inhibition of bacterial growth measured immediately after addition in presence of plasma; assay type: functional, organism-based
Staphylococcus aureus [17] = experiment: Bactericidal activity against early exponential phase Staphylococcus aureus assessed as bacterial killing at 6 ug/ml incubated for 4 hrs by time-kill assay; assay type: functional, organism-based; settings: dose 6.0 µg/ml
Staphylococcus aureus [18] = experiment: In vivo antibacterial activity against methicillin-resistant Staphylococcus aureus subcutaneously infected in SPF female Kunming mouse model assessed as bacteria count in dissected mouse at 10 mg/kg/day injected into blister after 6 hrs of infection measured after 6 consecutive treatments; assay type: functional, organism-based
Staphylococcus aureus [19] = experiment: Anti-bacterial activity against 100 times rifampicin induced persistent cells of Staphylococcus aureus assessed as reduction in persistent cells at 32 times of MIC; assay type: functional
Staphylococcus aureus [20] = experiment: Anti-biofilim activity against Staphylococcus aureus biofilm assessed bio-film thickness at 32 ug/ml measured after 24 hrs incubation by SYTO 9 staining based […] laser scanning microscopy (CLSM) (reference value: 29.5 microm); assay type: functional; settings: dose 32 µg/ml
Cell membrane = experiment: Induction of Cytoplasmic membrane depolarization in Staphylococcus aureus assessed as increase in fluorescence intensity measured at 6 times of MIC measured after 4 hrs by DiSC3(5) dye-based fluorescence assay; assay type: subcellular

Compound | MIC [6] | MIC (Escherichia coli) | selectivity ratio [7] | MIC (Enterococcus faecalis) | HC50 at 1 h [8] | CC50 at 24 h [9] | MIC (Staphylococcus aureus [10]) | other results
CCCCCCN(Cc1ccc(-c2ccc(CN(CCCCCC)C(=O)[C@@H](N)CCCCN)cc2)cc1)C(=O)[C@@H](N)CCCCN.O=C(O)C(F)(F)F.O=C(O)C(F)(F)F.O=C(O)C(F)(F)F.O=C(O)C(F)(F)F |  |  |  |  |  |  |  | MIC (Staphylococcus aureus [1]): 3.1 µg/mL; selectivity ratio [2]: 74.2
CNC(C)[C@@H]1CC[C@@H](N)[C@@H](O[C@H]2[C@H](O)[C@@H](O[C@H]3OC[C@](C)(O)[C@H](NC)[C@H]3O)[C@H](N)C[C@@H]2N)O1.CN[C@@H]1[C@@H](O)[C@@H](O[C@@H]2[C@@H](O)[C@H](O[C@H]3O[C@H](C(C)N)CC[C@H]3N)[C@@H](N)C[C@H]2N)OC[C@]1(C)O.CN[C@@H]1[C@@H](O)[C@@H](O[C@@H]2[C@@H](O)[C@H](O[C@H]3O[C@H](CN)CC[C@H]3N)[C@@H](N)C[C@H]2N)OC[C@]1(C)O (some centres not stated) |  |  |  |  |  |  |  | MIC90 (Staphylococcus aureus [3]): > 32 µg/mL
CCn1cc(C(=O)O)c(=O)c2cc(F)c(N3CCNCC3)cc21 [NORFLOXACIN] |  |  |  |  |  |  |  | MIC (Staphylococcus aureus [4]): 4 µg/mL
C[C@H]1c2cccc(O)c2C(=O)C2=C(O)[C@]3(O)C(=O)C(C(N)=O)=C(O)[C@@H](N(C)C)[C@@H]3[C@@H](O)[C@@H]21 [DOXYCYCLINE ANHYDROUS] |  |  |  |  |  |  |  | MIC90 (Staphylococcus aureus [5]): ≥ 16 µg/mL; MIC90 (Staphylococcus aureus [3]): > 32 µg/mL
CCCCCCCC[N+](C)(C)CCCCCOc1cc(OCCCCC[N+](C)(C)CCCCCCCC)cc(OCCCCC[N+](C)(C)CCCCCCCC)c1.[Br-].[Br-].[Br-] | 2 µg/mL | 4 µg/mL | 1420 | 2 µg/mL | 711 µg/mL | < 30 µg/mL | 0.5 µg/mL | 
CO[C@H]1/C=C/O[C@@]2(C)Oc3c(C)c(O)c4c(O)c(c(/C=N/N5CCN(C)CC5)c(O)c4c3C2=O)NC(=O)/C(C)=C\C=C\[C@H](C)[C@H](O)[C@@H](C)[C@@H](O)[C@@H](C)[C@H](OC(C)=O)[C@@H]1C [RIFAMPIN] |  |  |  |  |  |  |  | MIC90 (Staphylococcus aureus [3]): > 32 µg/mL
CC[C@H]1OC(=O)[C@H](C)[C@@H](O[C@H]2C[C@@](C)(OC)[C@@H](O)[C@H](C)O2)[C@H](C)[C@@H](O[C@@H]2O[C@H](C)C[C@H](N(C)C)[C@H]2O)[C@](C)(O)C[C@@H](C)C(=O)[C@H](C)[C@@H](O)[C@]1(C)O [ERYTHROMYCIN] |  |  |  |  |  |  |  | MIC90 (Staphylococcus aureus [3]): > 32 µg/mL
CC(C)CCCCC(=O)N[C@@H](CCN)C(=O)N[C@@H](CN[C@@H](CCN)C(=O)N[C@H]1CCNC(=O)[C@H]([C@@H](C)O)NC(=O)[C@H](CCN)NC(=O)[C@H](CCN)NC(=O)[C@H](CC(C)C)NC(=O)[C@@H](CC(C)C)NC(=O)[C@H](CCN)NC1=O)[C@@H](C)O.CCC(C)CCCCC(=O)N[C@@H](CCN)C(=O)N[C@@H](CN[C@@H](CCN)C(=O)N[C@H]1CCNC(=O)[C@H]([C@@H](C)O)NC(=O)[C@H](CCN)NC(=O)[C@H](CCN)NC(=O)[C@H](CC(C)C)NC(=O)[C@@H](CC(C)C)NC(=O)[C@H](CCN)NC1=O)[C@@H](C)O (stereo partly drawn) (H-[X1]([Dab-Octanoyl(6-Me)])[Dab][Dab][dL]L[Dab][Dab]T; lactam 2-C) |  |  |  |  |  |  |  | MIC (Staphylococcus aureus [4]): 4 µg/mL
CCCCCC[N+](C)(C)CCCCCOc1cc(OCCCCC[N+](C)(C)CCCCCC)cc(OCCCCC[N+](C)(C)CCCCCC)c1.[Br-].[Br-].[Br-] | 4 µg/mL | 8 µg/mL | > 1280 | 2 µg/mL | > 1280 µg/mL | < 30 µg/mL | 1 µg/mL | 
CCCCCCNC(=O)C[N+](C)(C)CCCCCCCCCCCC[N+](C)(C)CC(=O)NCCCCCC.[Br-].[Br-] |  |  | > 1280 |  | > 1280 µg/mL | 19.1 µg/mL | 1 µg/mL | selectivity ratio [11]: 805; HC50 [12]: 805 µg/mL; MIC (Staphylococcus aureus [13]): 1 µg/mL
CCCCCCCNC(=O)C[N+](C)(C)CCCCCCCCCCCC[N+](C)(C)CC(=O)NCCCCCCC.[Br-].[Br-] |  | 0.062 µg/mL |  |  |  | 38.1 µg/mL |  | selectivity ratio [11]: 2440; HC50 [12]: 1220 µg/mL; MIC (Staphylococcus aureus [13]): 0.5 µg/mL
CCCCCCN(CCCOc1ccccc1-c1ccccc1OCCCN(CCCCCC)C(=O)[C@@H](N)CCCCN)C(=O)[C@@H](N)CCCCN.Cl.Cl.Cl.Cl |  |  |  |  |  |  |  | MIC (Staphylococcus aureus [1]): 0.5 µg/mL; HC50 [14]: > 1000 µg/mL; selectivity ratio [2]: > 2000
CN[C@H](CC(C)C)C(=O)N[C@H]1C(=O)N[C@@H](CC(N)=O)C(=O)N[C@H]2C(=O)N[C@H]3C(=O)N[C@H](C(=O)N[C@H](C(=O)O)c4cc(O)cc(O)c4-c4cc3ccc4O)[C@H](O)c3ccc(c(Cl)c3)Oc3cc2cc(c3O[C@@H]2O[C@H](CO)[C@@H](O)[C@H](O)[C@H]2O[C@H]2C[C@](C)(N)[C@H](O)[C@H](C)O2)Oc2ccc(cc2Cl)[C@H]1O [VANCOMYCIN] |  | 2 µg/mL (≈ 1.38 µM) |  |  | 805 µg/mL |  |  | Activity (Staphylococcus aureus [15]): Active; Activity (Staphylococcus aureus [16]): Active; Activity (Staphylococcus aureus [17]): Active; Activity (Staphylococcus aureus [18]): Active; Activity (Staphylococcus aureus [19]): 3.2 log10CFU/ml; Activity (Staphylococcus aureus [20]): 22.1 um
C[N+](C)(CCCCCOc1ccccc1)CCCCCOc1cc(OCCCCC[N+](C)(C)CCCCCOc2ccccc2)cc(OCCCCC[N+](C)(C)CCCCCOc2ccccc2)c1.[Br-].[Br-].[Br-] | 2 µg/mL | 1 µg/mL | > 1280 | 2 µg/mL | > 1280 µg/mL | < 30 µg/mL | 1 µg/mL | 
C[N+](C)(CCCCCOc1cc(OCCCCC[N+](C)(C)CCCCOc2ccccc2)cc(OCCCCC[N+](C)(C)CCCCOc2ccccc2)c1)CCCCOc1ccccc1.[Br-].[Br-].[Br-] | 4 µg/mL | 2 µg/mL | > 1280 | 2 µg/mL | > 1280 µg/mL | < 30 µg/mL | 1 µg/mL | 
CCCCCCCC[N+](C)(C)CCCOc1cc(OCCC[N+](C)(C)CCCCCCCC)cc(OCCC[N+](C)(C)CCCCCCCC)c1.[Br-].[Br-].[Br-] | 4 µg/mL | 4 µg/mL | > 640 | 1 µg/mL | > 1280 µg/mL | < 30 µg/mL | 2 µg/mL | 
CC[C@H](C)[C@H](NC(=O)CN)C(=O)NCC(=O)N[C@@H](C)C(=O)N[C@H](C(=O)N[C@@H](CC(C)C)C(=O)N[C@@H](CCCCN)C(=O)N[C@H](C(=O)N[C@@H](CC(C)C)C(=O)N[C@H](C(=O)N[C@H](C(=O)NCC(=O)N[C@@H](CC(C)C)C(=O)N1CCC[C@H]1C(=O)N[C@@H](C)C(=O)N[C@@H](CC(C)C)C(=O)N[C@H](C(=O)N[C@@H](CO)C(=O)N[C@@H](Cc1c[nH]c2ccccc12)C(=O)N[C@H](C(=O)N[C@@H](CCCCN)C(=O)N[C@@H](CCCNC(=N)N)C(=O)N[C@@H](CCCCN)C(=O)N[C@@H](CCCNC(=N)N)C(=O)N[C@@H](CCC(N)=O)C(=O)N[C@@H](CCC(N)=O)C(N)=O)[C@@H](C)CC)[C@@H](C)CC)[C@@H](C)O)[C@@H](C)O)C(C)C)C(C)C |  |  |  |  |  |  |  | Activity (Cell membrane): Active
C[N+](C)(CCCCCOc1cc(OCCCCC[N+](C)(C)CCCOc2ccccc2)cc(OCCCCC[N+](C)(C)CCCOc2ccccc2)c1)CCCOc1ccccc1.[Br-].[Br-].[Br-] | 2 µg/mL | 2 µg/mL | > 1280 | 1 µg/mL | > 1280 µg/mL | < 30 µg/mL | 1 µg/mL | 
C[N+](C)(CCCCCOc1cc(OCCCCC[N+](C)(C)CCCCc2ccccc2)cc(OCCCCC[N+](C)(C)CCCCc2ccccc2)c1)CCCCc1ccccc1.[Br-].[Br-].[Br-] | 2 µg/mL | 2 µg/mL | > 1280 | 2 µg/mL | > 1280 µg/mL | < 30 µg/mL | 1 µg/mL | 
